# Assay results published in ChEMBL document CHEMBL1201862, “PubChem BioAssay data set” (2004).
#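 Cells were grown in 96-well plates and exposed to each compound for 48 hours at five concentrations; endpoints were interpolated linearly between bracketing concentrations, or set to the highest concentration if not reached. GI50 is the concentration that inhibits growth by half.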 The source made the active and inactive calls. Rule as the data show it: active = GI50 up to about 1.1 µM and inactive = higher.
# Key:
# Test in all cases: NCI anticancer screen, dose series, 48 h
# A549 = system: A549
# BT-549 = system: BT-549
# CCRF-CEM = system: CCRF-CEM
# HCC 2998 = system: HCC 2998
# HL-60 = system: HL-60
# HT-29 = system: HT-29
# KM12 = system: KM12
# MDA-MB-435 = system: MDA-MB-435
# NCI-H23 = system: NCI-H23
# NCI-H460 = system: NCI-H460
# OVCAR-8 = system: OVCAR-8
# PC-3 = system: PC-3
# RXF 393 = system: RXF 393
# SK-MEL-28 = system: SK-MEL-28
# SK-OV-3 = system: SK-OV-3
# SN12C = system: SN12C
# U-251 = system: U-251
# UACC-257 = system: UACC-257
# UO-31 = system: UO-31
# HCT-116 = system: HCT-116
SMILES,GI50 (A549),GI50 (BT-549),GI50 (CCRF-CEM),GI50 (HCC 2998),GI50 (HL-60),GI50 (HT-29),GI50 (KM12),GI50 (MDA-MB-435),GI50 (NCI-H23),GI50 (NCI-H460),GI50 (OVCAR-8),GI50 (PC-3),GI50 (RXF 393),GI50 (SK-MEL-28),GI50 (SK-OV-3),GI50 (SN12C),GI50 (U-251),GI50 (UACC-257),GI50 (UO-31),GI50 (HCT-116)
COc1cc(COC(=O)N(CC(=O)O)c2ccccc2)c([N+](=O)[O-])cc1OC,> 100 µM (inactive),> 100 µM (inactive),> 100 µM (inactive),> 100 µM (inactive),> 100 µM (inactive),> 100 µM (inactive),> 100 µM (inactive),> 100 µM (inactive),> 100 µM (inactive),> 100 µM (inactive),> 100 µM (inactive),> 100 µM (inactive),> 100 µM (inactive),> 100 µM (inactive),> 100 µM (inactive),> 100 µM (inactive),> 100 µM (inactive),> 100 µM (inactive),> 100 µM (inactive),–
CC(=O)NS(=O)(=O)c1ccc(NCc2cccc3c(=O)c4ccc(Cl)cc4oc23)cc1,> 80.9 µM (inactive),> 54.2 µM (inactive),4.2 µM (inactive),38.5 µM (inactive),1.44 µM (inactive),31.8 µM (inactive),20.5 µM (inactive),38.3 µM (inactive),33 µM (inactive),19.7 µM (inactive),16.9 µM (inactive),38.5 µM (inactive),20.4 µM (inactive),73.8 µM (inactive),> 53.8 µM (inactive),> 65.6 µM (inactive),31.6 µM (inactive),> 56.6 µM (inactive),25.4 µM (inactive),> 26.7 µM (inactive)
C/C1=C/C(C)CC(C)OC(=O)C(C)NC(=O)C(Cc2ccc(O)c(I)c2)N(C)C(=O)C(C)NC(=O)C(C)C1 (stereo not drawn),< 0.01 µM (active),< 0.01 µM (active),< 0.01 µM (active),< 0.01 µM (active),< 0.01 µM (active),< 0.01 µM (active),< 0.01 µM (active),< 0.01 µM (active),0.311 µM (active),< 0.01 µM (active),0.0354 µM (active),< 0.01 µM (active),< 0.01 µM (active),0.0314 µM (active),< 0.01 µM (active),< 0.0249 µM (active),< 0.01 µM (active),< 0.01 µM (active),0.0127 µM (active),< 0.01 µM (active)
Nc1nc2cc(CNc3ccc(C(=O)NC(CCC(=O)O)C(=O)O)cc3)ccc2nc1-c1ccccc1 (stereo not drawn),> 10 µM (inactive),> 10 µM (inactive),> 10 µM (inactive),> 10 µM (inactive),> 10 µM (inactive),> 10 µM (inactive),> 10 µM (inactive),> 10 µM (inactive),> 10 µM (inactive),> 10 µM (inactive),> 10 µM (inactive),> 10 µM (inactive),> 10 µM (inactive),> 10 µM (inactive),> 10 µM (inactive),> 10 µM (inactive),> 10 µM (inactive),> 10 µM (inactive),> 10 µM (inactive),> 10 µM (inactive)
COC(=O)c1cc(C)ccc1/C=C1\Cc2c(C)cc(C)cc2C1=O,99.3 µM (inactive),36.5 µM (inactive),> 100 µM (inactive),> 100 µM (inactive),21.9 µM (inactive),10.8 µM (inactive),> 44 µM (inactive),59 µM (inactive),14.5 µM (inactive),> 85.7 µM (inactive),47 µM (inactive),> 39.8 µM (inactive),16.1 µM (inactive),99.1 µM (inactive),–,69 µM (inactive),14 µM (inactive),> 18.3 µM (inactive),12.3 µM (inactive),8.41 µM (inactive)
O=C1NC(=O)/C(=C/c2ccc(S(=O)(=O)N/N=C/c3ccc(Cl)cc3)cc2)N1,> 100 µM (inactive),> 100 µM (inactive),> 100 µM (inactive),> 100 µM (inactive),72.9 µM (inactive),> 100 µM (inactive),> 100 µM (inactive),> 100 µM (inactive),> 100 µM (inactive),> 100 µM (inactive),> 100 µM (inactive),> 100 µM (inactive),> 100 µM (inactive),> 100 µM (inactive),> 100 µM (inactive),> 100 µM (inactive),> 100 µM (inactive),> 100 µM (inactive),> 100 µM (inactive),> 100 µM (inactive)
C=CCn1c2c(c3ccccc3c1=O)C(=O)c1ccccc1-2,> 100 µM (inactive),> 100 µM (inactive),> 100 µM (inactive),> 100 µM (inactive),3.41 µM (inactive),> 100 µM (inactive),> 72.9 µM (inactive),> 87.3 µM (inactive),> 100 µM (inactive),6.28 µM (inactive),> 88.9 µM (inactive),> 100 µM (inactive),15.9 µM (inactive),> 100 µM (inactive),> 100 µM (inactive),> 100 µM (inactive),30.8 µM (inactive),> 100 µM (inactive),> 100 µM (inactive),> 26.2 µM (inactive)
C/C(=N\NC(=S)N1CCN(c2ccccn2)CC1)c1cccc2cccnc12,5.25 µM (inactive),14.3 µM (inactive),2.18 µM (inactive),5.47 µM (inactive),0.828 µM (active),3.61 µM (inactive),3.9 µM (inactive),6.31 µM (inactive),11.5 µM (inactive),3.51 µM (inactive),3.43 µM (inactive),3.67 µM (inactive),3.33 µM (inactive),6.58 µM (inactive),11.4 µM (inactive),4.07 µM (inactive),4.12 µM (inactive),2.84 µM (inactive),4.36 µM (inactive),2.39 µM (inactive)
COc1ccc(-n2c(=O)c3nc[nH]c3n(-c3ccc(OC)cc3)c2=S)cc1,> 100 µM (inactive),> 100 µM (inactive),> 100 µM (inactive),> 100 µM (inactive),> 100 µM (inactive),> 100 µM (inactive),> 100 µM (inactive),> 100 µM (inactive),> 100 µM (inactive),> 100 µM (inactive),> 100 µM (inactive),> 100 µM (inactive),> 100 µM (inactive),> 100 µM (inactive),> 100 µM (inactive),> 100 µM (inactive),> 100 µM (inactive),> 100 µM (inactive),> 100 µM (inactive),> 100 µM (inactive)
Cc1c(/C=N/NC(=S)N2CCCCC2)c(=O)n(-c2ccccc2)n1C,55.3 µM (inactive),> 100 µM (inactive),23.2 µM (inactive),75 µM (inactive),14 µM (inactive),73.8 µM (inactive),97.1 µM (inactive),> 100 µM (inactive),> 100 µM (inactive),37.1 µM (inactive),42.8 µM (inactive),> 100 µM (inactive),26.5 µM (inactive),75.2 µM (inactive),68.1 µM (inactive),–,83.2 µM (inactive),> 100 µM (inactive),42.4 µM (inactive),57.8 µM (inactive)
COC(=O)c1ccccc1/C=C1\Cc2ccc(C)c(C)c2C1=O,> 100 µM (inactive),> 100 µM (inactive),> 100 µM (inactive),> 100 µM (inactive),> 100 µM (inactive),> 100 µM (inactive),> 100 µM (inactive),> 100 µM (inactive),> 100 µM (inactive),> 100 µM (inactive),> 100 µM (inactive),> 100 µM (inactive),> 100 µM (inactive),> 100 µM (inactive),–,> 100 µM (inactive),48.6 µM (inactive),> 100 µM (inactive),> 100 µM (inactive),> 100 µM (inactive)
O=C1c2ccccc2C(=O)N1NC1=NCCN1,> 100 µM (inactive),> 100 µM (inactive),> 100 µM (inactive),> 100 µM (inactive),> 100 µM (inactive),> 100 µM (inactive),> 100 µM (inactive),> 100 µM (inactive),> 100 µM (inactive),> 100 µM (inactive),> 100 µM (inactive),> 100 µM (inactive),> 100 µM (inactive),> 100 µM (inactive),> 100 µM (inactive),> 100 µM (inactive),> 100 µM (inactive),> 100 µM (inactive),–,> 100 µM (inactive)
NC(Cc1ccc(OCc2ccccc2)cn1)C(=O)OCc1ccccc1 (stereo not drawn),> 100 µM (inactive),> 100 µM (inactive),> 100 µM (inactive),52.4 µM (inactive),> 100 µM (inactive),> 100 µM (inactive),> 100 µM (inactive),> 100 µM (inactive),> 100 µM (inactive),> 100 µM (inactive),> 100 µM (inactive),> 100 µM (inactive),> 100 µM (inactive),> 100 µM (inactive),–,> 100 µM (inactive),> 100 µM (inactive),> 100 µM (inactive),> 100 µM (inactive),> 100 µM (inactive)
Cc1cc2nc(N)n[n+]([O-])c2cc1C,> 100 µM (inactive),> 100 µM (inactive),> 100 µM (inactive),> 100 µM (inactive),> 100 µM (inactive),> 100 µM (inactive),> 100 µM (inactive),> 100 µM (inactive),> 100 µM (inactive),–,> 100 µM (inactive),> 100 µM (inactive),> 100 µM (inactive),> 100 µM (inactive),> 100 µM (inactive),> 100 µM (inactive),> 100 µM (inactive),> 100 µM (inactive),> 100 µM (inactive),> 100 µM (inactive)
